#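 Tested at 5 concentrations; 48 h exposure; 96-well plates; endpoints linearly interpolated, else capped at highest concentration. The concentration for 50% growth inhibition is given as GI50. TGI is the concentration that stops growth completely.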
# Key:
# Experiment in all cases: inhibition of tumour cell growth, NCI panel, 48 h
# 786-0 renal = system: 786-0 renal
# SNB-19 CNS = system: SNB-19 CNS
# A549 NSCLC = system: A549 NSCLC
# SK-MEL-2 melanoma = system: SK-MEL-2 melanoma
# OVCAR-4 ovarian = system: OVCAR-4 ovarian
# NCI-H460 lung = system: NCI-H460 lung
# MALME-3M melanoma = system: MALME-3M melanoma
# SF-539 CNS = system: SF-539 CNS
# SK-MEL-28 melanoma = system: SK-MEL-28 melanoma
# NCI/ADR-RES ovarian = system: NCI/ADR-RES ovarian
Compound,TGI (786-0 renal) [µM],TGI (SNB-19 CNS) [µM],TGI (A549 NSCLC) [µM],TGI (SK-MEL-2 melanoma) [µM],TGI (OVCAR-4 ovarian) [µM],TGI (NCI-H460 lung) [µM],TGI (MALME-3M melanoma) [µM],TGI (SF-539 CNS) [µM],TGI (SK-MEL-28 melanoma) [µM],GI50 (NCI/ADR-RES ovarian) [µM],TGI (NCI/ADR-RES ovarian) [µM],GI50 (786-0 renal) [µM],GI50 (SNB-19 CNS) [µM],GI50 (A549 NSCLC) [µM],GI50 (NCI-H460 lung) [µM],GI50 (MALME-3M melanoma) [µM],GI50 (SF-539 CNS) [µM],GI50 (SK-MEL-28 melanoma) [µM],GI50 (SK-MEL-2 melanoma) [µM],GI50 (OVCAR-4 ovarian) [µM]
CCCCN(CCCC)CC(C(=O)Nc1ccc([N+](=O)[O-])cc1[N+](=O)[O-])/C(C)=N\NC(=O)C[N+](C)(C)C (centres undefined),> 100,> 100,> 100,> 100,> 100,> 100,> 100,> 100,> 100,–,–,–,–,–,–,–,–,–,–,–
NC(=S)N/N=C(\CCC(=O)Nc1ccccc1[N+](=O)[O-])CC(=O)c1ccco1,> 100,> 100,> 100,> 100,> 100,> 100,> 100,> 100,> 100,–,–,–,–,–,–,–,–,–,–,–
NC(CO)c1ccc(OCc2ccccc2)cc1 (centres undefined),> 100,> 100,> 100,> 100,> 100,> 100,> 100,> 100,> 100,–,–,–,–,–,–,–,–,–,–,–
O=c1[nH]c(F)nc2c1ncn2C1OC(CO)C(O)C1O (centres undefined),> 100,> 100,> 100,–,–,> 100,> 100,80.3,> 100,> 100,> 100,> 100,> 100,> 100,> 100,> 100,23.9,> 100,–,–
CCC1c2cc3n(c(=O)c2COC1O)Cc1c-3nc2ccccc2c1Cl (centres undefined),> 100,> 100,> 100,> 100,> 100,> 100,> 100,> 100,> 100,–,–,–,–,–,–,–,–,–,–,–
Cc1cc2c(cc1C)[n+](=O)c(C(=O)CC(=O)C(=O)Nc1ccccc1C(C)C)c(C)n2[O-],> 100,> 100,> 100,> 100,> 100,> 100,> 100,> 100,> 100,–,–,–,–,–,–,–,–,–,–,–
COc1cc(C2C(C(=O)O)=C(COC(C)=O)Oc3cc4c(cc32)OCO4)cc(OC)c1OC(C)=O (centres undefined),> 100,> 100,> 100,> 100,> 100,> 100,> 100,–,> 100,–,–,–,–,–,–,–,–,–,–,–
O=C(O)CCC1CCc2cccc(OCC(=O)O)c2C1=O (centres undefined),> 100,> 100,> 100,–,> 100,> 100,–,> 100,> 100,–,–,–,–,–,–,–,–,–,–,–
N#Cc1c2ccccc2c2nnc3ccc(C(F)(F)F)cc3n12,> 100,> 100,> 100,85.2,> 100,> 100,> 100,–,> 100,72.7,> 100,> 100,> 100,26.9,28.7,47.9,–,> 100,23.5,97.9
O=c1c(O)cc2c(O)oc3c(=O)c(O)c(O)c4c(O)oc1c2c43,> 100,> 100,> 100,> 100,33.3,> 100,> 100,> 100,> 100,–,–,–,–,–,–,–,–,–,–,–
CC(=O)OCC1OC([Se-])C(OC(C)=O)C(OC(C)=O)C1OC(C)=O.N#CCC[PH+](CCC#N)CCC#N.[Au+] (centres undefined),53.3,> 77.9,42.4,48.4,65.8,29.6,48.3,41.2,60.5,–,–,6.3,10.9,9.09,4.95,15,15.3,9.01,11.8,13.8
O=C(Cc1ccccc1)N/N=C(/c1nc2ccc([N+](=O)[O-])cc2[nH]c1=O)C(O)c1ccccc1Cl (centres undefined),> 100,–,> 100,> 100,> 100,> 100,> 100,> 100,> 100,–,–,–,–,–,–,–,–,–,–,–
C=C1C(=O)c2cc3c(cc2C(c2cc(OC)c(OC)c(OC)c2)[C@@H]1C(=O)O)OCO3 (some centres undefined),> 100,–,> 100,–,–,> 100,> 100,> 100,> 100,–,–,–,–,–,–,–,–,–,–,–
Cc1ccc(NC(=O)/C(=N\NC(N)=S)C(C#N)c2ccccc2C)cc1C (centres undefined),> 100,> 100,> 100,> 100,> 100,> 100,> 100,> 100,> 100,–,–,–,–,–,–,–,–,–,–,–
CCc1cccc(CC)c1NC(=O)CC1SC(N)=NC1=O (centres undefined),> 100,> 100,> 100,> 100,> 100,> 100,> 100,> 100,> 100,–,–,–,–,–,–,–,–,–,–,–
Cn1c2cc([N+](=O)[O-])ccc2c(=O)c2c(O)cc3c(c21)C=CC(C)(C)O3,> 100,73,> 100,> 100,> 100,> 100,> 100,32.4,> 100,–,–,–,–,–,–,–,–,–,–,–
O=C(N/C=C/C=C/Sc1ccccc1)OCc1ccccc1,31,> 100,59.8,–,57,57,–,30.4,34.3,–,–,–,–,–,–,–,–,–,–,–
C=C(COC(C)=O)CC(/C=C(\C)CC/C=C(\C)CO)OC(C)=O (centres undefined),> 100,> 100,> 100,> 100,> 100,> 100,–,> 100,> 100,–,–,–,–,–,–,–,–,–,–,–
O=C([O-])CCc1ccccc1.O=C([O-])CCc1ccccc1.O=C([O-])CCc1ccccc1.O=C([O-])CCc1ccccc1.[Mo+2].[Mo+2],> 100,> 100,> 100,> 100,> 100,> 100,> 100,> 100,> 100,–,–,> 100,> 100,> 100,> 100,> 100,> 100,> 100,> 100,> 100
NS(=O)(=O)c1ccc(N=C2C(=O)Nc3ccccc32)cc1,> 100,> 100,> 100,> 100,> 100,> 100,> 100,–,> 100,–,> 100,–,–,–,–,–,–,–,–,–

# From PubChem BioAssay (NCI)
